# Legend:
# [1] = tested on: pancreatic tumor organoids co-cultured with T cells or macrophages; experiment: Co-culture of pancreatic tumor organoids and immune cells; format: cell-based, human
# Protocol: T cells and monocytes were isolated from the peripheral blood of patients using the EasySep™ Human CD8+ T Cell Isolation Kit and Human Monocyte Isolation Kit ([…]). CD8+ T cells were activated with anti-CD3 (5 μg/mL) and anti-CD28 (5 μg/mL) antibodies (BioLegend), while monocytes were stimulated with 50 ng/mL of M-CSF (BioLegend) for 6 days to induce differentiation into macrophages. […] On day 5, immune cells were harvested for flow cytometry analysis. Tumor organoids were photographed, viability was assessed, and organoids were embedded for HE and IHC staining at days 0, 5, and 10 of co-culture.
# Mouse tumors were digested using the Mouse Tumor Dissociation Kit (Miltenyi Biotec) according to the manufacturer's protocol. The resulting single-cell suspension was filtered through a 70-micron mesh to ensure a homogeneous cell population. Cells were stained with fluorescently labeled antibodies for flow cytometry at 4°C on ice for 30 minutes. After washing off unbound antibodies, fluorescence was detected using a Beckman CytoFlex S flow cytometer. For co-cultured immune cells, separated T cells and macrophages were similarly stained with flow cytometry antibodies. For cytokine staining, cells were pre-stimulated with the eBioscience™ Cell Stimulation Cocktail for 4 hours. For intracellular protein staining, after surface staining, cells were fixed and permeabilized using the BD Cytofix/Cytoperm™ Fixation/Permeabilization Kit, followed by staining for intracellular proteins. Flow cytometry data were analyzed using FlowJo 10 software.
# mouse STING (R231) = target: T1, mouse STING (R231) (Mus musculus, UniProt Q3TBT3); experiment: Differential scanning fluorimetry (DSF); format: binding; settings: n = 3
# T1 sequence (Q3TBT3 1-378): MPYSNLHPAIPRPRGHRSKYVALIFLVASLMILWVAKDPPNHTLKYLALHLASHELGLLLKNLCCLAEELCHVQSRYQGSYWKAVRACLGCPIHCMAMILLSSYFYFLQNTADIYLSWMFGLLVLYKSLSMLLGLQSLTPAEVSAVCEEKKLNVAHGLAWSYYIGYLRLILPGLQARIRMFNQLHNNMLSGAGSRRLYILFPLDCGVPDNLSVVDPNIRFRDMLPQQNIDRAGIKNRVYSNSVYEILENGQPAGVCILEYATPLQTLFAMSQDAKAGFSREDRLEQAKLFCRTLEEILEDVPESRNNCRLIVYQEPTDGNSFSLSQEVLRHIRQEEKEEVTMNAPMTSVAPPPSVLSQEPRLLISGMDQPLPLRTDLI
# Text: (§1) human STING variants (R232) and mouse STING (R231) in differential scanning
# (§2) fluorimetry (DSF) assay. The data were shown as the mean value of fluorescence (n =
# (§3) (1 picture or pasted object on this page, not shown here)
# [2] = tested on: human STING variants (R232); experiment: Differential scanning fluorimetry (DSF); format: binding; settings: n = 3
# Text: as §1, §2, §3
# cGAS-STING pathway = experiment: cGAS-STING pathway, IFN-β and ISG readout in pancreatic cancer organoids; format: cell-based, human
# Protocol: (§4) Tumor tissues or cells were thoroughly lysed in RIPA buffer containing protease and phosphatase inhibitors. The lysates were then centrifuged to collect the supernatant. Proteins were separated by electrophoresis in MOPS buffer and subsequently transferred onto a PVDF membrane. After blocking, the membrane was sequentially incubated with the primary antibody, secondary antibody, and chemiluminescent substrate (ECL) for imaging.
# RNA from tumor tissues or cells was extracted using the SteadyPure Universal RNA Extraction Kit (Accurate Biology) and reverse transcribed into cDNA with the Evo M-MLV Reverse Transcription Kit (Accurate Biology). Relative RNA expression levels were quantified using 2X Universal SYBR Green Fast qPCR Mix (Abclonal), and the results were recorded on the qTOWER®3 84 Real-Time PCR system.
# (§5) Multiplex cytokine detection was performed using Luminex cytokine bead array technology provided by WayenBio, Shanghai. In the mouse tumor model, levels of multiple cytokines were simultaneously measured and normalized to tumor weight. For the quantification of specific cytokines, such as IL-6 and IFN-β, enzyme-linked immunosorbent assay (ELISA) kits from Abclonal were used. The assays were conducted according to the manufacturer's instructions.
# [3] = tested on: STING and downstream signaling molecules; experiment: STING pathway western blot in Panc-1 cell line; format: cell-based; settings: human pancreatic cell line Panc-1
# Protocol: as §4
# (§6) Western Blot showing cGAS-STING pathway protein expression of Panc-1 cell line
# (§7) (B) CCK8 of Panc-1 cell line when
# (§8) (C-D) Representative image (C) and statistic (D) of […]
# Panc-1 cell line = experiment: CCK8 and colony assay of Panc-1 cell line; format: cell-based, human; settings: Panc-1, 10μM D166, CCK8 and colony assay
# Text: as §6, §7, §8
# m-STING = target: T2, m-STING (Mus musculus, UniProt Q3TBT3); experiment: Raw-lucia reporter activation fold; format: cell-based
# T2 construct: Raw-lucia Fold (50 μM); endogenous in cells; host or cells: RAW-Lucia
# T2 sequence (Q3TBT3 1-378): T1 sequence (Q3TBT3 1-378)
# [4] = tested on: subcutaneous pancreatic tumor; experiment: Subcutaneous pancreatic tumor model; format: in vivo, C57BL/6 mice
# Protocol: C57BL/6 mice were obtained from Phenotek (Shanghai) and randomly assigned to groups, with a minimum of six mice per group. For the subcutaneous tumor model, approximately 5 × 10^5 tumor cells were suspended in 150 μL PBS and injected into the left flank of the mice. Tumor size was measured every four days starting from day 7 post-injection. On days 9, 12, and 15, the mice were administered three different concentrations of the drug via peritumoral injection, while the Control group received only the solvent. The mice were euthanized on day 25, and tumors were excised, weighed, and further analyzed.
# as §5
structure (smiles),measurement,setting,value
[2H]C([2H])([2H])Oc1cc2cc(C(=O)CCC(=O)O)sc2cc1OC([2H])([2H])[2H] [D166],size and viability of pancreatic cancer organoids,"[1]; CTG assay, days 0, 5, 10 of co-culture",significant reduction
same,"IL-6, IFN-β, IFN-γ, and TNF-α levels","[1]; culture medium, ELISA",significantly increased
same,IFNG and GZMB release from T cells,[1]; flow cytometry,marked increase
same,mean fluorescence intensities (MFI) of CD86 and CD80 (M1 markers) in macrophages,[1]; flow cytometry,significantly increased
same,mean fluorescence intensities (MFI) of CD163 and CD206 (M2 markers) in macrophages,[1]; flow cytometry,significantly decreased
same,thermal stability of mouse STING (R231),mouse STING (R231),increased
same,thermal stability of human STING variants (R232),[2],increased
same,"activating IFN-stimulated genes (ISGs) compared with ADU-S100, MSA-2, SR-717, MK-1454 and DXMAA","cGAS-STING pathway; organoids, 10μM",better efficacy
same,activation of the cGAS-STING pathway and induction of IFN-β,"cGAS-STING pathway; pancreatic cancer organoids, different concentration and duration",time- and dose-dependent effect
same,activation of STING and downstream signaling molecules,[3],dose- and time-dependent manner
same,proliferation,Panc-1 cell line,without affecting proliferation
same,Raw-lucia Fold (50 μM),m-STING,25.34 Fold
same,"IL-6, IFN-β, and TNF-α levels in the TME","[4]; higher D166 doses, ELISA",increased
same,tumor growth,"[4]; peritumoral injection, different doses",significant dose-dependent inhibitory effect
same,antitumor efficacy compared with other STING agonists,"[4]; tumor weight, Figure S4A",comparable to that of other STING agonists

# — paper PMC12160547, “Identification of a Novel Small Molecule STING Agonist Reshaping the Immunomicroenvironment of Pancreatic Ductal Adenocarcinoma” (International Journal of Biological Sciences, 2025)
